Assay results from ChEMBL document CHEMBL3832881, “CO-ADD antimicrobial screening data of OSM samples” (2017).

Columns and labels:
[1] = test system: Staphylococcus aureus; test: Antibacterial activity against Staphylococcus aureus MRSA ATCC 43300; Growth inhibition at 32 ug/mL in CAMBH media using NBS plates.; format: functional, ATCC 43300; MRSA; details: ASSAY_TEST Inhibition of Bacterial Growth, CONC 32 ug.mL-1, detection method Absorption (OD600), MEDIA CAMHB, plate type NBS, 384well, time 18 hr
[2] = test system: Candida albicans; test: Antifungal activity against Candida albicans ATCC 90028; Growth inhibition at 32 ug/mL in YNB media using NBS plates.; format: functional, ATCC 90028; CLSI reference; details: CLSI reference, ASSAY_TEST Inhibition of Fungal Growth, CONC 32 ug.mL-1, detection method Absorption (OD600), plate type NBS, 384well, time 18 hr
[3] = test system: Pseudomonas aeruginosa; test: Antibacterial activity against Pseudomonas aeruginosa ATCC 27853; Growth inhibition at 32 ug/mL in CAMBH media using NBS plates.; format: functional, ATCC 27853; Type strain; details: Type strain, ASSAY_TEST Inhibition of Bacterial Growth, CONC 32 ug.mL-1, detection method Absorption (OD600), MEDIA CAMHB, plate type NBS, 384well, time 18 hr
[4] = test system: Escherichia coli; test: Antibacterial activity against Escherichia coli ATCC 25922; Growth inhibition at 32 ug/mL in CAMBH media using NBS plates.; format: functional, ATCC 25922; Type strain; details: Type strain, ASSAY_TEST Inhibition of Bacterial Growth, CONC 32 ug.mL-1, detection method Absorption (OD600), MEDIA CAMHB, plate type NBS, 384well, time 18 hr
[5] = test system: Cryptococcus neoformans; test: Antifungal activity against Cryptococcus neoformans H99 ATCC 208821; Growth inhibition at 32 ug/mL in YNB media using NBS plates.; format: functional, ATCC 208821; H99 Type strain; details: H99 Type strain, ASSAY_TEST Inhibition of Fungal Growth, CONC 32 ug.mL-1, detection method Resazurin, Absorption (OD600-OD570), plate type NBS, 384well, time 18 hr
[6] = test system: Acinetobacter baumannii; test: Antibacterial activity against Acinetobacter baumannii ATCC 19606; Growth inhibition at 32 ug/mL in CAMBH media using NBS plates.; format: functional, ATCC 19606; Type strain; details: Type strain, ASSAY_TEST Inhibition of Bacterial Growth, CONC 32 ug.mL-1, detection method Absorption (OD600), MEDIA CAMHB, plate type NBS, 384well, time 18 hr
[7] = test system: Klebsiella pneumoniae; test: Antibacterial activity against Klebsiella pneumoniae MDR ATCC 70063; Growth inhibition at 32 ug/mL in CAMBH media using NBS plates.; format: functional, ATCC 700603; MDR; details: ATCC 700603, ASSAY_TEST Inhibition of Bacterial Growth, CONC 32 ug.mL-1, detection method Absorption (OD600), MEDIA CAMHB, plate type NBS, 384well, time 18 hr
[8] = test system: Staphylococcus aureus; test: Antibacterial activity against Staphylococcus aureus MRSA ATCC 43300; MIC in CAMBH media using NBS plates.; format: functional, ATCC 43300; MRSA; details: ASSAY_TEST Inhibition of Bacterial Growth, detection method Absorption (OD600), MEDIA CAMHB, plate type NBS, 384well, time 18 hr
[9] = test system: Candida albicans; test: Antifungal activity against Candida albicans ATCC 90028; MIC in YNB media using NBS plates.; format: functional, ATCC 90028; CLSI reference; details: CLSI reference, ASSAY_TEST Inhibition of Fungal Growth, detection method Absorption (OD630), plate type NBS, 384well, time 18 hr
[10] = Cytotoxicity against HEK293 cells; CC50 by Resazurin assay in DMEM (10% FBS) media using TC plates; format: toxicity, cell-based, ATCC CRL1573; parameters: time 18 hr; details: human
[11] = test system: Cryptococcus neoformans; test: Antifungal activity against Cryptococcus neoformans H99 ATCC 208821; MIC in YNB media using NBS plates.; format: functional, ATCC 208821; H99 Type strain; details: H99 Type strain, ASSAY_TEST Inhibition of Fungal Growth, detection method Resazurin, Absorption (OD600-OD570), plate type NBS, 384well, time 18 hr
[12] = test system: Pseudomonas aeruginosa; test: Antibacterial activity against Pseudomonas aeruginosa ATCC 27853; MIC in CAMBH media using NBS plates.; format: functional, ATCC 27853; Type strain; details: Type strain, ASSAY_TEST Inhibition of Bacterial Growth, detection method Absorption (OD600), MEDIA CAMHB, plate type NBS, 384well, time 18 hr
[13] = test system: Acinetobacter baumannii; test: Antibacterial activity against Acinetobacter baumannii ATCC 19606; MIC in CAMBH media using NBS plates.; format: functional, ATCC 19606; Type strain; details: Type strain, ASSAY_TEST Inhibition of Bacterial Growth, detection method Absorption (OD600), MEDIA CAMHB, plate type NBS, 384well, time 18 hr
[14] = test system: Escherichia coli; test: Antibacterial activity against Escherichia coli ATCC 25922; MIC in CAMBH media using NBS plates.; format: functional, ATCC 25922; Type strain; details: Type strain, ASSAY_TEST Inhibition of Bacterial Growth, detection method Absorption (OD600), MEDIA CAMHB, plate type NBS, 384well, time 18 hr
[15] = test system: Klebsiella pneumoniae; test: Antibacterial activity against Klebsiella pneumoniae MDR ATCC 70063; MIC in CAMBH media using NBS plates.; format: functional, ATCC 700603; MDR; details: ATCC 700603, ASSAY_TEST Inhibition of Bacterial Growth, detection method Absorption (OD600), MEDIA CAMHB, plate type NBS, 384well, time 18 hr

| SMILES | inhibition at 32 µg/mL [1] | inhibition at 32 µg/mL [2] | inhibition at 32 µg/mL [3] | inhibition at 32 µg/mL [4] | inhibition at 32 µg/mL [5] | inhibition at 32 µg/mL [6] | inhibition at 32 µg/mL [7] | MIC [8] | MIC [9] | CC50 at 18 h [10] | MIC [11] | MIC [12] | MIC [13] | MIC [14] | MIC [15] |
| --- | --- | --- | --- | --- | --- | --- | --- | --- | --- | --- | --- | --- | --- | --- | --- |
| O=C(CCCC[C@@H]1SC[C@@H]2NC(=O)N[C@@H]21)NCCCn1cc(CN2CCCNCCNCCCNCC2)nn1 | 19.4% | 2.8% | 10.9% | 15.2% | 41.9% | 23% | 12.5% |  |  |  |  |  |  |  |  |
| O=C(Nc1cccc(Cl)c1)c1cncc2nnc(-c3ccc(OC(F)(F)F)cc3)n12 | 5.8% | 3.5% | 4% | 3.5% | -2.8% | -5.2% | 1.6% |  |  |  |  |  |  |  |  |
| COc1ccc(-n2c(C)cc(CN3CCC4(CC3)OCCc3sccc34)c2C)cc1 | 55% | 2.4% | 22.6% | 22.4% | -0.2% | 4.6% | 15.4% | > 32 µg/mL | > 32 µg/mL | > 32 µg/mL | > 32 µg/mL | > 32 µg/mL | > 32 µg/mL | > 32 µg/mL | > 32 µg/mL |
| O=C(Nc1cccc(Cl)c1F)c1cncc2nnc(-c3ccc(OC(F)F)cc3)n12 | 1.4% | 1.1% | 1% | -1.1% | -7.5% | -9.8% | -0.7% |  |  |  |  |  |  |  |  |
| CC(C)C[C@H](NC(=O)[C@H](CCCCN)NC(=O)Cn1cc(CN2CCCNCCNCCCNCC2)nn1)C(=O)N[C@H](C(=O)N[C@@H](Cc1ccccc1)C(=O)N[C@@H](Cc1ccccc1)C(=O)O)C(C)C | 16.9% | 1.3% | 5% | 21.4% | -3.4% | 13.1% | 6% |  |  |  |  |  |  |  |  |
| Clc1ccccc1-c1nnc2cncc(OCCc3ccccc3)n12 | 15.3% | 1.8% | 14.7% | 17.8% | -5.6% | 5.2% | 6.2% |  |  |  |  |  |  |  |  |
| CCN1C(=O)c2cccc3c(-n4cc(CN5CCCNCCN(Cc6cn(-c7ccc8c9c(cccc79)C(=O)N(CC)C8=O)nn6)CCCNCC5)nn4)ccc(c23)C1=O.O=C(O)C(F)(F)F.O=C(O)C(F)(F)F | 54% | 5.2% | 15.2% | 20.4% | 1.4% | 31.4% | 17.2% | > 32 µg/mL | > 32 µg/mL | > 32 µg/mL | > 32 µg/mL | > 32 µg/mL | > 32 µg/mL | > 32 µg/mL | > 32 µg/mL |
| Cc1cc(/C=C2\S/C(=N\c3ccccc3)NC2=O)c(C)n1-c1ccc(C(F)(F)F)cc1 | 17.9% | 9.8% | 7.3% | 6.8% | -1.7% | 9.1% | 6.7% |  |  |  |  |  |  |  |  |
| Cc1cc(C(=O)OCC(N)=O)c(C)n1-c1ccc(F)cc1 | 24.9% | 7.5% | 6% | 13.4% | -2.2% | 12.2% | 12.3% |  |  |  |  |  |  |  |  |
| COc1cc2c(cc1OC)C1(CCN(Cc3ccccc3)CC1)OCC2 | 16.9% | 2.2% | 23.6% | 17.8% | -8.2% | 7.9% | 16.4% |  |  |  |  |  |  |  |  |
| c1cc2c(s1)CCOC21CCN(Cc2ccc3c(c2)OCCO3)CC1 | 17.4% | 1% | 8.6% | 16.1% | -5.8% | 10.2% | 19.3% |  |  |  |  |  |  |  |  |
| c1ccc(CN2CCC3(CC2)OCCc2ccsc23)cc1 | 17.1% | 3.6% | 11.9% | 17.1% | -4% | 9.8% | 8.6% |  |  |  |  |  |  |  |  |
| Nc1ncnc2cc(-c3cccc(S(N)(=O)=O)c3)sc12 | 27.6% | 8.9% | 2.3% | 17.9% | -4.6% | 7.5% | 9.5% |  |  |  |  |  |  |  |  |
| Nc1ncnc2cc(-c3ccc(C(=O)N4CCOCC4)cc3)sc12 | 22.2% | 1% | 2.4% | 8.6% | -1.2% | 8.3% | 5.4% |  |  |  |  |  |  |  |  |
| COc1ccc(-n2c(C)cc(/C=C3\S/C(=N\c4ccccc4)NC3=O)c2C)cc1 | 10.6% | 7.8% | -4.2% | 2.8% | -4.3% | -2.8% | -1.1% |  |  |  |  |  |  |  |  |
| COc1ccc(-n2c(C)cc(/C=C3\S/C(=N\c4cccc(O)c4)NC3=O)c2C)cc1 | 8.9% | 2.5% | -0.1% | 2.1% | -6.8% | -4.5% | -1.3% |  |  |  |  |  |  |  |  |
| c1ccc(CN2CCC3(CC2)OCCc2cc(-c4ccccc4)sc23)cc1 | 18.9% | 9.1% | -1.5% | 14.3% | -0.6% | 6.6% | 12.4% |  |  |  |  |  |  |  |  |
